# Values joined by “and” are separate entries in the source; they are usually repeats but may differ in a detail not shown here. Equal entries are not always repeated. Numbered stars: 1 amine (or outer) side, 2 acyl side, 3 side chain; on linkers, the order of the positions; unused ones are H or OH. Bridge positions count the residues as written; N and C are the ends. Square brackets hold non-standard residues; d marks the D form. Peptide text beside a SMILES is read from it. I, II: the chains in the order shown. Actinocin(9to1) = Cc1c2oc3c(C)ccc(C(=O)[*:1])c3nc-2c(C(=O)[*:2])c(N)c1=O; NMeV = CN[C@H](C(=O)O)C(C)C; Sar = CNCC(=O)O
# Columns and labels:
# [1] = isolated from Anacardium occidentale; cited from earlier work
# [2] = tested on: Propionibacterium acnes (ATCC 11827); assay: Antibacterial activity, broth microdilution MIC (INT colour change); format: cell-based; details: P. acnes, 72 h anaerobic; for MIC: Cutibacterium acnes, ATCC11827, 72 h
# Experimental: The ethanol extract and compounds were tested against P. acnes by determining the minimum inhibitory concentration (MIC) values obtained by a microdilution method as previously described with few modifications. Briefly, the bacteria was cultured from a Kwik-Stick on nutrient agar and incubated at 37°C for 72 h under anaerobic conditions before the assay. The 72 h culture of the bacteria was dissolved in nutrient broth and the suspension was adjusted to 0.5 McFarland standard turbidity. […] In a sterile 96-well plate, 100 μl of samples from the stock solution consisting of the plant extract/isolated compounds (2 mg/ml in 10% dimethyl sulphoxide (DMSO)) and the positive control tetracycline (0.2 mg/ml) were diluted with broth. Twofold serial dilutions were made in broth over a range to give concentrations of 500–3.9 μg/ml and 50–0.3 and μg/ml for the plant extract/ isolated compounds and positive control tetracycline, respectively. The bacterial suspension (100 μl) was then added to the wells. The wells with 2.5% DMSO and bacterial suspension without samples served as the solvent and negative controls, respectively. The plates were incubated at 37°C for 72 h in an anaerobic environment.
# DPPH antioxidant assay = format: biochemical; details: for Antioxidant IC50 / IC50: DPPH; for Antioxidant IC50: 550 nm; for IC50: value in brackets; for Antioxidant Mg Vit C equivalents/g dry weight: IC50 vit C/IC50 sample × 1000
# Experimental: Antioxidant activity of the ethanol extract of S. jambos and compounds was investigated using 1,2-diphenyl-1-picrylhydrazyl (DPPH) antioxidant assay. Following the procedures as described by DuToit et al. for each sample, a dilution series (8 dilutions) was prepared in a 96 well plate by adding distilled water as a dilution medium. Final concentration of the samples ranged from 100 to 0.7 μg/ml. Each concentration was tested in triplicate. Vitamin C was used as a positive control. […] The radical scavenging activity was measured in terms of the amount of antioxidants necessary to decrease the initial DPPH absorbance by 50% (IC50). The IC50 value of each sample was determined graphically by plotting the absorbance of DPPH as a function of the sample concentration in μg/ml. The IC50 is the amount of antioxidant necessary to decrease the initial DPPH absorbance by 50%. The results are expressed as the mg vitamin C equivalents/g dry weight and calculated as follows: […]
# [3] = In vitro cytotoxicity assay (XTT), B16-F10; details: mouse
# Experimental: (§1) The mouse melanocytes (B16-F10) cells were cultured in a complete Minimum Essential Eagle’s Medium (MEM) whereas the human U937 cells were cultured in Roswell Park Memorial Institute (RPMI) containing 10% fetal bovine serum (FBS) and 1% gentamycin. B16-F10 (10^5 cells per well) and U937 (10^6 cells per well) were seeded into a 96-well plate. After an overnight incubation at 37°C in 5% CO2 and a humidified atmosphere, the extract, compounds and the positive control (actinomycin D) were added to the cells. […] The highest concentration of positive control (0.05 μg/ml) was serially diluted to eight consecutive wells. The plate was then incubated at 37°C in 5% CO2, and a humidified atmosphere after which the toxic effects of the extracts were assayed using the XTT (sodium 3’-[1-(phenyl amino-carbonyl)-3,4-tetrazolium]-bis-[4-methoxy-6-nitrobenzene sulfonic acid hydrate) cytotoxicity assay. […] The optical densities of the wells were measured at 450 nm (690 nm reference wavelength) using BIOTEK Power-wave XS multi well reader (A.D.P., Weltevreden Park, South Africa). By referring to the control (medium with DMSO), the cell survival rate was assessed.
# [4] = In vitro cytotoxicity assay (XTT), U937; details: human
# Experimental: as §1
# TNF α = TNF α release from U937 cells stimulated with heat-killed P. acnes (ELISA); format: cell-based, human; details: for Inhibitory ratio (%) TNF α: 18 h; for Suppression of TNF α release (range stated jointly for IL 8 and TNF α): abstract summary
# Experimental: (§2) Briefly, the log phase culture of P. acnes was harvested, washed three times with phosphate buffer saline (PBS), and incubated at 80°C for 30 min to kill the bacteria. The heat-killed bacteria were stored at 4°C until use. […] Pentoxifylline was used as a control. […] Cytokine standards were serially diluted to facilitate the construction of calibration curves necessary for determining protein concentration after treatment with test samples. The ratio (%) of inhibition of the cytokine release was calculated using the following equation: […] Where T represents the concentration of the cytokine in the culture supernatant with the test sample, and C represents the concentration of cytokine in the culture supernatant with the solvent.
# [5] = tested on: B16-F10 mouse melanocytes; assay: In vitro cytotoxicity assay (XTT), B16-F10; details: B16-F10 cells
# Experimental: as §1
# U937 human macrophage = assay: In vitro cytotoxicity assay (XTT), U937; details: U937 cells
# Experimental: as §1
# IL 8 = IL 8 release from U937 cells stimulated with heat-killed P. acnes (ELISA); format: cell-based, human; details: for Inhibition of IL 8 in words: at the highest concentration tested; for Inhibitory ratio (%) IL 8: 18 h; for Suppression of IL 8 release (range stated jointly for IL 8 and TNF α): abstract summary
# Experimental: as §2
# [6] = tested on: vancomycin-resistant enterococci; parameters: method as in PMID 17541170; details: cited from earlier work
# P. acnes [7] = tested on: P. acnes; parameters: method as in doi:10.1021/jf00030a036; details: cited from earlier work
# P. acnes [8] = assay: Transmission electron microscopy of treated P. acnes; format: cell-based, Propionibacterium acnes; details: 50 μg/ml, 72 h
# Experimental: The TEM procedures followed the protocol of a previous publication. Briefly, bacteria was concentrated by centrifugation at 10 000 rpm for 1 min. The pellet was resuspended in nutrient broth to a final OD550 nm of 1. […] The bacterial suspension (5 ml) was mixed with plant extract and pure compound to a final concentration of 300 and 100 μg/ml for plant extract and 50 μg/ml for pure compound. Tetracycline (50 μg/ml) and DMSO (2.5%) were used as positive and solvent control, respectively. The pathogen was treated for 72 h; the control group consisted of only bacterial suspension in nutrient broth. Treated and untreated P. acnes cultures were centrifuged and fixed in 2.5% glutraldehyde in phosphate buffer at room temperature for 1 h. Samples were washed with phosphate buffer and postfixed in both 1% osmium tetraoxide and uranyl acetate. The cells were dehydrated in ethanol and embedded in quetol resin. Thin sections were prepared with a microtome and micrographs were taken using a JEOL JEM-2100 F field emission electron microscope.
# [9] = at the highest concentration tested
molecule,measurement,setting,value
6-pentadecenylsalicylic acid,DPPH radical scavenging activity in words,[1],did not exhibit notable DPPH radical scavenging activity
"O=C(O)c1cc(O)c(O)c(O)c1 [Gallic acid, gallic acid]",MIC,[2]; 37°C,> 500 µg/mL
same,Antibacterial MIC,[2]; 37°C,Na (not active at the highest concentration tested (500 μg/ml))
same,Antioxidant IC50,DPPH antioxidant assay,0.8 µg/mL
same,IC50,DPPH antioxidant assay,4.8 µM
same,Antioxidant Mg Vit C equivalents/g dry weight,DPPH antioxidant assay,2444.9 Mg Vit C equivalents/g dry weight
same,EC50,[3],2.2 µg/mL and 13.1 µM
same,EC50,[4],28.4 µg/mL and 169 µM
same,Inhibition of TNF α in words,TNF α; [9],suppressed TNF α drastically
"O=c1c(O)c(-c2cc(O)c(O)c(O)c2)oc2cc(O)cc(O)c12 [Myricetin, myricetin]",MIC,[2]; 37°C,> 500 µg/mL
same,Antibacterial MIC,[2]; 37°C,Na (not active at the highest concentration tested (500 μg/ml))
same,Antioxidant IC50,DPPH antioxidant assay,0.9 µg/mL
same,IC50,DPPH antioxidant assay,3 µM
same,Antioxidant Mg Vit C equivalents/g dry weight,DPPH antioxidant assay,2105.0 Mg Vit C equivalents/g dry weight
same,EC50,[3]; B16-F10 mouse melanocyte cells,11.1 µg/mL and 35.1 µM
same,Toxicity in words,[5],significant toxicity
same,EC50,[4]; U937 human macrophage cells,19.3 µg/mL and 60 µM
same,Toxicity in words,U937 human macrophage,moderate toxicity
same,Inhibition of IL 8 in words,IL 8,low inhibition
same,Inhibitory ratio (%) IL 8,IL 8; final concentration 3.1 μg/ml,-0.5%
same,Inhibitory ratio (%) IL 8,IL 8; final concentration 6.2 μg/ml,10%
same,Inhibitory ratio (%) IL 8,IL 8; final concentration 12.5 μg/ml,34%
same,Inhibition of TNF α in words,TNF α; [9],moderately decreased
same,Inhibitory ratio (%) TNF α,TNF α; final concentration 3.1 μg/ml,-4.8%
same,Inhibitory ratio (%) TNF α,TNF α; final concentration 6.2 μg/ml,27.1%
same,Inhibitory ratio (%) TNF α,TNF α; final concentration 12.5 μg/ml,44.1%
"CC(=O)CCCCn1c(=O)c2c(ncn2C)n(C)c1=O [Pentoxifylline, reference compound]",Inhibitory ratio (%) IL 8,IL 8; final concentration 10 μg/ml,-0.16%
same,Inhibitory ratio (%) IL 8,IL 8; final concentration 50 μg/ml,-5.0%
same,Inhibitory ratio (%) IL 8,IL 8; final concentration 100 μg/ml,-1.3%
same,Change in IL 8 concentration in words,IL 8; pentoxifylline control,no significant change
same,Inhibition of TNF α in words,TNF α; at 100 and 50 μg/ml,Very high inhibition
same,Inhibitory ratio (%) TNF α,TNF α; final concentration 10 μg/ml,66.8%
same,Inhibitory ratio (%) TNF α,TNF α; final concentration 50 μg/ml,99.7%
same,Inhibitory ratio (%) TNF α,TNF α; final concentration 100 μg/ml,99.7%
"CC(C)=CCC/C(C)=C/CC/C(C)=C/CC/C=C(\C)CC/C=C(\C)CCC=C(C)C [Squalene, squalene]",MIC,[2]; 37°C,> 500 µg/mL
same,Antibacterial MIC,[2]; 37°C,Na (not active at the highest concentration tested (500 μg/ml))
same,Antioxidant IC50,DPPH antioxidant assay,>100 µg/mL
same,viability at 100 μg/ml,[3]; B16-F10 melanocyte cells,100%
same,EC50,[3]; B16-F10 mouse melanocyte cells,> 100 µg/mL
same,EC50,[4],> 100 µg/mL
same,viability at 100 μg/ml,[4],100%
"C[C@H]1[C@H](C)CC[C@]2(C(=O)O)CC[C@]3(C)C(=CC[C@@H]4[C@@]5(C)CC[C@H](O)C(C)(C)[C@@H]5CC[C@]43C)[C@H]12 [Ursolic acid, ursolic acid]",MIC,[2]; 37°C,> 500 µg/mL
same,Antibacterial MIC,[2]; 37°C,Na (not active at the highest concentration tested (500 μg/ml))
same,EC50,[4]; U937 human macrophage cells,38 µg/mL and 83.2 µM
same,Toxicity in words,U937 human macrophage,moderately toxic
same,Suppression of IL 8 release (range stated jointly for IL 8 and TNF α),IL 8,74 - 99%
same,Inhibition of IL 8 in words,IL 8,significant inhibition
same,Suppression of TNF α release (range stated jointly for IL 8 and TNF α),TNF α,74 - 99%
same,Inhibition of TNF α in words,TNF α; [9],significant inhibition
same,MIC,[6],4 µg/mL
"Cc1c2oc3c(C)ccc(C(=O)N[C@@H]4C(=O)N[C@H](C(C)C)C(=O)N5CCC[C@H]5C(=O)N(C)CC(=O)N(C)[C@@H](C(C)C)C(=O)O[C@@H]4C)c3nc-2c(C(=O)N[C@@H]2C(=O)N[C@H](C(C)C)C(=O)N3CCC[C@H]3C(=O)N(C)CC(=O)N(C)[C@@H](C(C)C)C(=O)O[C@@H]2C)c(N)c1=O [actinomycin D, reference compound] (I: T[dV]P[Sar][NMeV] / II: T[dV]P[Sar][NMeV]; ester I:1-I:C, II:1-II:C; linker I:N-II:N via Actinocin(9to1))",EC50,[3],0.0045 µg/mL
same,EC50,[4],0.0045 µg/mL
CCCCCCCCCCCCCCCc1cccc(O)c1C(=O)O [pentadecyl salicylic acid],MIC,P. acnes [7],0.78 µg/mL
"CN(C)[C@@H]1C(O)=C(C(N)=O)C(=O)[C@@]2(O)C(O)=C3C(=O)c4c(O)cccc4[C@@](C)(O)[C@H]3C[C@@H]12 [tetracycline, reference compound]",MIC,[2]; 37°C,3.1 µg/mL
same,MIC,[2]; value in brackets,7 µM
same,TEM: cell injury to P. acnes,P. acnes [8],significant damages to the cells of P. acnes
"O=C1O[C@H]([C@@H](O)CO)C(O)=C1O [vitamin C, reference compound]",Antioxidant IC50,DPPH antioxidant assay,1.9 µg/mL
same,IC50,DPPH antioxidant assay,11.3 µM
myricitrin,Antibacterial MIC,[2]; 37°C,Na (not active at the highest concentration tested (500 μg/ml))
same,Antibacterial MIC,"[2]; 37°C, listed as myricitrin",> 500 µg/mL
same,Antioxidant IC50,DPPH antioxidant assay,1.8 µg/mL
same,IC50,DPPH antioxidant assay,4 µM
same,Antioxidant Mg Vit C equivalents/g dry weight,DPPH antioxidant assay,1081.0 Mg Vit C equivalents/g dry weight
same,Suppression of IL 8 release (range stated jointly for IL 8 and TNF α),IL 8,74 - 99%
same,Inhibition of IL 8 in words,IL 8,significant inhibition
same,Inhibitory ratio (%) IL 8,IL 8; final concentration 10 μg/ml,40.6%
same,Inhibitory ratio (%) IL 8,IL 8; final concentration 50 μg/ml,94.3%
same,Inhibitory ratio (%) IL 8,IL 8; final concentration 100 μg/ml,99.6%
same,Suppression of TNF α release (range stated jointly for IL 8 and TNF α),TNF α,74 - 99%
same,Inhibition of TNF α in words,TNF α; [9],significant inhibition
same,Inhibitory ratio (%) TNF α,TNF α; final concentration 10 μg/ml,32.8%
same,Inhibitory ratio (%) TNF α,TNF α; final concentration 50 μg/ml,99.7%
same,Inhibitory ratio (%) TNF α,TNF α; final concentration 100 μg/ml,99.7%
pentadecadienyl salicylic acid,MIC,P. acnes [7],0.78 µg/mL
pentadecatrienyl salicylic acid,MIC,P. acnes [7],0.78 µg/mL
pentadecenyl salicylic acid,MIC,P. acnes [7],0.78 µg/mL

# — paper PMC4228444 (BMC Complementary and Alternative Medicine, 2013)
